Measured values from patent US12037324B2, “Biarylmethyl heterocycles” (Université de Montréal, priority 2016, dated 2024).
Where two headings read alike, the source gives them in different places.

Key:
AGTR1 = target: T1, AGTR1 (Homo sapiens, UniProt P30556); test: DiscoveRx β-arrestin2 recruitment assay (enzyme complementation, Pathunter CHO-K1 AGTR1 β-arrestin cell line); assay type: cell-based
T1 construct: host or cells: Pathunter CHO-K1 AGTR1 β-arrestin cell line (CHO-K1)
T1 sequence (P30556 1-359): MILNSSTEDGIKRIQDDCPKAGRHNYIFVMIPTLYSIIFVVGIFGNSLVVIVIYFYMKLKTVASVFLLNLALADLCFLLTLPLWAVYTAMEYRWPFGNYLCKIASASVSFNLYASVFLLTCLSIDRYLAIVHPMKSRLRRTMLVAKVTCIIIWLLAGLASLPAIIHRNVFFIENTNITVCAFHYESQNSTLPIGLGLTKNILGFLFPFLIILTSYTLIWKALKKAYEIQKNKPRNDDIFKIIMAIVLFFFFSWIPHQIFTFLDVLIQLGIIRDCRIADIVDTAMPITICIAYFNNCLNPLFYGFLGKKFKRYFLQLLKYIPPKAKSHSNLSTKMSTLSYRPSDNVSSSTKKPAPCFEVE
In short: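 CHO-K1 cells expressing AGTR1 with β-arrestin2 enzyme-complementation reporter, plated 14-16 h ahead in 1% serum medium, then exposed to compounds for 90 min at 37° C. Chemiluminescence read after 1 h detection. EC50 (agonist) or IC50 (antagonist) from 4-parameter logistic fit; activity as percentage of All maximal effect.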

hAT1R [1] = target: T2, hAT1R (Homo sapiens, UniProt P30556); test: cell-based; settings: section of the 42nd table ending at r951, example numbering restarts after the DiscoveRx section; read-out: β-arrestin2 EC50
T2 sequence (P30556 1-359): T1 sequence (P30556 1-359)

hAT1R [2] = target: T2, hAT1R; test: BRET Gq biosensor assay, agonist response, HEK293 cells; assay type: cell-based; settings: section of the 42nd table directly before the BRET P63 section
In short: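 HEK293 cells co-transfected with signal-peptide-optimized hAT1R plus Gαq-Rluc, Gβ1 and GFP-Gγ1, assayed 48 h later in Tyrode's buffer pH 7.4. Coelenterazine (2 μM final) added, then compound; BRET2 (515/410 nm) read after 5 min at room temperature. EC50 by 4-parameter fit, normalized to unstimulated (0%) and maximal AngII (100%).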

hAT1R [3] = target: T2, hAT1R; test: cell-based; settings: agonist mode; for EC50: read-out: BRET P63 EC50
hAT1R [4] = target: T2, hAT1R; test: BRET β-arrestin2 biosensor assay, higher receptor expression (hAT1R 5 ng/well), HEK293 cells; assay type: cell-based; settings: for EC50: High AT1R Expression
[5] = DiscoveRx β-arrestin2 recruitment
[6] = DiscoveRx β-arrestin2 recruitment, maximal response

Row | Compound | EC50 (AGTR1; [5]) [nM] | DiscoveRx β-arrestin2 Ymax (%) (AGTR1; [6]) | EC50 (hAT1R [1]) [nM] | EC50 (hAT1R [2]) [nM] | BRET P63 Ymax (hAT1R [3]) [%] | EC50 (hAT1R [3]) [nM] | DiscoveRx β-arrestin2 Ymax (%) (AGTR1; [5]) | BRET β-Arrestin2 High AT1R Expression Ymax (%) (hAT1R [4]) | EC50 (hAT1R [4]) [nM] | EC50 (AGTR1) [nM]
1 | CCOc1nc2cccc(C(=O)O)c2n1Cc1ccc(-c2cc(-c3cc(N(C)C)ccn3)ccc2-c2noc(=O)[nH]2)cc1 [Example 305] | 25.5 | 69.3 | 90.3 | 82.9 | 24.3 | 67 | – | – | – | –
2 | CCOc1nc2cccc(C(=O)O)c2n1Cc1ccc(-c2cc(Oc3ccccc3)ccc2-c2nn[nH]n2)cc1 [Example 330, 2-Ethoxy-1-((5′-phenoxy-2′-(2H-tetrazol-5-yl)-[1,1′-biphenyl]-4-yl)methyl)-1H-benzo[d]imidazole-7-carboxylic acid] | 13.2 | 57.8 | 16.7 | 40.1 | – | > 10000 | – | – | – | –
3 | CCCCc1nc(Cl)c(C(=O)O)n1Cc1ccc(-c2cc(N3CCC[C@H](C)C3)ccc2-c2nn[nH]n2)cc1 [Example 418, (S)-2-butyl-4-chloro-1-((5′-(3-methylpiperidin-1-yl)-2′-(2H-tetrazol-5-yl)-[1,1′-biphenyl]-4-yl)methyl)-1H-imidazole-5-carboxylic acid] | 67.8 | 31.2 | 154 | 478 | – | > 10000 | – | – | – | –
4 | CCc1nc2c(C)cc(C)nc2n1Cc1ccc(-c2cc(-c3cccc(C)c3)ccc2-c2nn[nH]n2)c(F)c1 [Example 267] | 9.8 | 62.5 | 8.2 | 36.6 | 17.7 | 7.5 | – | – | – | –
5 | CCOc1nc2cccc(C(=O)O)c2n1Cc1ccc(-c2cc(Oc3cccc(OC(F)(F)F)c3)ccc2-c2nn[nH]n2)cc1 [Example 335] | 36.1 | 22.7 | 6 | 721 | – | > 10000 | – | – | – | –
6 | CCCCC(=O)N(Cc1ccc(-c2cc(-c3ccccn3)ccc2-c2nn[nH]n2)cc1)[C@H](C(=O)O)C(C)C [Example 443, (S)-3-Methyl-2-(N-((5′-(pyridin-2-yl)-2′-(2H-tetrazol-5-yl)-[1,1′-biphenyl]-4-yl)methyl)pentanamido)butanoic] | 124 | – | – | 77.1 | 4.5 | 365 | 36.5 | 83.9 | 153 | –
7 | CCCCC(=O)N(Cc1ccc(-c2cc(-c3ccccc3)ccc2-c2nn[nH]n2)cc1)C1(C(=O)O)CCN(c2ccccc2)CC1 [Example 298, 4-(N-((6′-(2H-Tetrazol-5-yl)-[1,1′:3′,1″-terphenyl]-4-yl)methyl)pentan-amido)-1-phenylpiperidine-4-carboxylic acid] | 278 | 31.3 | – | 958 | – | > 100000 | – | 68.8 | 270 | –
8 | CCCCC(=O)N(Cc1ccc(-c2cc(-c3cccc(C)n3)ccc2-c2nn[nH]n2)cc1)C1(C(=O)O)CCCCC1 [Example 294] | 87.3 | 28.9 | – | 427 | – | > 100000 | – | 24.7 | 150 | –
9 | CCCCC1=NC2(CCCC2)C(=O)N1Cc1ccc(-c2cc(Oc3cc(C)ccn3)ccc2-c2nn[nH]n2)cc1 [Example 455] | 46.8 | – | 182 | 93.8 | – | – | 14.4 | – | – | > 100000
10 | CCCCC(=O)N(Cc1ccc(-c2cc(-c3ccccn3)ccc2-c2nn[nH]n2)cc1)C1(C(=O)O)CCCCC1 [Example 293, 1-(N-((5′-(Pyridin-2-yl)-2′-(2H-tetrazol-5-yl)-[1,1′-biphenyl]-4-yl)methyl)pentanamido)cyclohexanecarboxylic acid] | 187 | 40.4 | – | 1240 | – | > 100000 | – | 70.2 | 136 | –
11 | CCCCC(=O)N(Cc1ccc(-c2cc(N3CCCC(C)C3)ccc2-c2nn[nH]n2)cc1)C1(C(=O)O)CCCCC1 (stereo not shown) [Example 297, 1-(N-((5′-(3-methylpiperidin-1-yl)-2′-(2H-tetrazol-5-yl)-[1,1′-biphenyl]-4-yl)methyl)pentanamido)cyclohexanecarboxylic acid] | 142 | 30.5 | – | 621 | – | > 100000 | – | 74.5 | 327 | –
12 | CCCCC(=O)N(Cc1ccc(-c2cc(N3CCCC(C)C3)ccc2-c2nn[nH]n2)cc1)[C@H](C(=O)O)C(C)C (stereo partly shown) [Example 448] | 161 | – | – | 856 | – | > 100000 | 20.8 | 58.5 | 599 | –
13 | CCCCC(=O)N(Cc1ccc(-c2cc(-c3cccc(OC)n3)ccc2-c2nn[nH]n2)cc1)C1(C(=O)O)CCCCC1 [Example 296] | 128 | 41.8 | – | 619 | 6.9 | 307 | – | 79.9 | 68.8 | –
14 | CCCCC(=O)N(Cc1ccc(-c2cc(Nc3ccccc3)ccc2-c2nn[nH]n2)cc1)[C@H](C(=O)O)C(C)C [Example 449] | 263 | – | – | > 100000 | – | > 100000 | 17.8 | 30.1 | 345 | –
15 | CCCCc1nc(Cl)c(C(=O)O)n1Cc1ccc(-c2cc(-c3cccc4[nH]ccc34)ccc2-c2nn[nH]n2)cc1 [Example 392, 1-((5′-(1H-indol-4-yl)-2′-(2H-tetrazol-5-yl)-1,1,1′-biphenyll-4-yl)methyl)-2-butyl-4-chloro-1H-imidazole-5-carboxyimc acid] | 45.2 | 29.2 | – | 3320 | – | > 100000 | – | 79.1 | 17.2 | –
16 | CCCCC(=O)N(Cc1ccc(-c2cc(N3CCC(C)CC3)ccc2-c2nn[nH]n2)cc1)[C@H](C(=O)O)C(C)C [Example 447] | 295 | – | – | 1380 | – | > 100000 | 35.0 | 63.1 | 336 | –
17 | CCCCC(=O)N(Cc1ccc(-c2cc(-c3cccc(OC)n3)ccc2-c2nn[nH]n2)cc1)[C@H](C(=O)O)C(C)C [Example 446] | 179 | – | – | > 100000 | 4.5 | 668 | 29.8 | 84.3 | 144 | –
18 | CCCCC(=O)N(Cc1ccc(-c2cc(-c3cccc(C)n3)ccc2-c2nn[nH]n2)cc1)[C@H](C(=O)O)C(C)C [Example 444] | 125 | – | – | 258 | – | > 100000 | 36.3 | 46.5 | 147 | –
19 | CCCCC(=O)N(Cc1ccc(-c2cc(-c3ccccc3)ccc2-c2nn[nH]n2)cc1)C1(C(=O)O)CCOCC1 [Example 276] | 50 | 50.9 | – | 401 | – | – | – | 73.6 | 77.9 | –
